Assay results from patent publication US7189701B1, “Tetrapeptide stimulating functional activity of neurons pharmacological agent based thereon and method of use thereof” (Sankt-Petersburgskaya Obschestvennaya Organizatsiya …, priority 1999, dated 2007).
Residues, ends and D or L forms follow the SMILES beside them.

Tests used:
Assay type in all cases: in vivo
[1] = test system: rats with severe craniocerebral compression; assay: Acute severe craniocerebral injury model (CRAA learning, rotating pivot)
Procedure: Effect of L-Ala-L-Glu-L-Asp-L-Pro tetrapeptide on repair processes in the brain was assessed on the model of acute severe craniocerebral injury. Dynamics of the CNS functional restoration was defined by the tests on the coordination of movements and muscular tonus of the animals as well as on their abilities for learning and reproduction of conditioned reflex skills.
Severe craniocerebral compression in the rats was caused by a falling lead weight. In 1, 12, 48 and 96 hours the experimental animals were intramuscularly injected with L-Ala-L-Glu-L-Asp-L-Pro tetrapeptide. Animals in the 2nd group received Cerebrolysin.
Abilities for learning and skill reproduction were estimated by the test on the conditioned reflex of active avoidance (CRAA). To estimate the muscular tonus and coordination of movements the rats were rotated on a pivot at an increasing speed. Simultaneously, the retention time was measured.

white unbred male mice = assay: Acute toxicity according to Kerber, single intramuscular administration
Text: Possible toxic effects of L-Ala-L-Glu-L-Asp-L-Pro (SEQ ID NO:1) tetrapeptide on the organism were studied in compliance with “The rules of preclinical estimation of safety of pharacological agents” (GLP) approved by the Department of State Control on Medicinal Agents and Medical Equipment of the Russian Federation of Dec. 29, 1997.
Objective of the study consisted in defining the tolerable toxic drug doses of the agent, estimating the stage and character of pathologic alterations in various organs and systems and in exploring the correlation between the toxic effects and the dose and duration of the drug application.
Acute toxicity of L-Ala-L-Glu-L-Asp-L-Pro (SEQ ID NO:1) tetrapeptide was determined according to Kerber. The study was performed on 66 white unbred male mice weighing 20 to 23 g kept in vivarium under standard regimen and fed upon standard rations. The animals were randomly divided into 6 equal groups by 11 mice in each. The animals were subject to a single intramuscular administration of 0.25 ml of the preparation in doses 1 mg/kg, 2 mg/kg, 3 mg/kg, 4 mg/kg, 5 mg/kg (several thousand times exceeding the therapeutic dose recommended for clinical trials). The control animals were administered the similar amount of saline.

rats [2] = assay: Toxic effects of neurotropic agents (apomorphine, haloperidol, nicotine, caffeine), spontaneous motional activity
Procedure: Investigated was the action of L-Ala-L-Glu-L-Asp-L-Pro tetrapeptide on the toxic effects of neurotropic agents of various pharmacological groups.
In an hour after an intramuscular injection of saline (control) or L-Ala-L-Glu-L-Asp-L-Pro tetrapeptide (5 μg/kg) the rats were intraperitoneally administered toxic doses of different neuropharmacological agents (apomorphine, haloperidol, nicotine and caffeine). Thereby, the parameters of vertical (anxiety) and horizontal (locomotor activity) spontaneous motional activity were registered.

[3] = test system: mice subject to ECS-induced amnestic impact; assay: CRPA in mice subject to ECS-induced amnestic impact; conditions: testing in 24 hours after the training
Procedure: Nootropic activity of L-Ala-L-Glu-L-Asp-L-Pro tetrapeptide was studied with the application of the conditioned reflex of passive avoidance (CRPA) in the intact animals and under the conditions of amnestic impacts (electroconvulsive treatment and ethanol intoxication).
The experiments were carried out on male mice weighing 20 to 24 g. For each animal the period of stay in dark and lighted chamber departments was registered during 2 min. before the training. […] The animals were trained by means of applying an electric pain stimulus in the preferred dark department, which lasted until the animal left this department. L-Ala-L-Glu-L-Asp-L-Pro tetrapeptide was introduced intraperitoneally 60 min. before the training. Testing was performed in 2 and 24 hours after the training. The period the animal stayed in the dark and lighted chamber departments and the number of animals not entering the dark department (“educated” animals) were recorded.
Electroconvulsive shock (ECS) was induced in the mice no later than in 10 sec. after the training via corneal electrodes by an electric impulse of 25 mA, which lasted for 0.5 sec. L-Ala-L-Glu-L-Asp-L-Pro tetrapeptide was introduced intraperitoneally 60 min. before the training. Testing was performed in 24 hours after the training.

[4] = test system: mice with compressed fibular nerve; assay: Regeneration of the compressed peripheral (fibular) nerve, electrophysiological tests; conditions: 10 μg/kg i.p. daily for 8 days
Procedure: The study was accomplished on 22 white unbred male mice weighing 25 to 30 g (7 experimental and 15 control animals).
At the 1st stage of the study, the mice were chronically operated on to compress the fibular nerve. The fibular nerve (n. peroneus communus) in the Nembutal-narcotised mice (60 mg/kg, intraperitoneally) was compressed at a distance of 8 to 9 mm from the innervated muscle—long digital extensor (m. extensor digitorum longus—EDL). The animals were operated on the left hind leg, whilst the corresponding nerve and muscle of the right leg were intact and used further as an intact control.
Afterwards, since the 3rd day after the nerve compression, the mice were intraperitoneally injected with L-Ala-L-Glu-L-Asp-L-Pro tetrapeptide in dose 10 μg/kg, daily for 8 days. The control mice were treated with an equivalent amount of saline.
On the 11th day after the nerve compression surgery (and within 24 hours after the last tetrapeptide injection), the Nembutal-narcotised mice (60 mg/kg) were subject in vivo to electrophysiological tests for different functional parameters of the already germinated nerve and reinnervated skeletal muscular fibres (EDL).

rats [5] = assay: Chronic toxicity, 6 months intramuscular
Procedure: Chronic toxicity of L-Ala-L-Glu-L-Asp-L-Pro (SEQ ID NO:1) tetrapeptide obtained by the claimed method was investigated by means of a long-term administration thereof to rats weighing 150–250 g. The animals were subject to daily intramuscular administration of the drug in doses 1 μg/kg, 0.1 mg/kg, 1 mg/kg in 0.5 ml of saline for 6 months. Animals' behaviour, food and water consumption, the state of hair integument and mucous membranes were registered. The animals were weighed daily for the first 3 months of the experiment and then—once a month. Haematological and biochemical investigations were conducted in 3 months after the onset of the drug administration and on the experiment completion. Functions of the cardiovascular system, liver, pancreas, kidneys and adrenal glands were assessed. After the treatment completion some animals were subject to pathomorphologic examination with the purpose to estimate the state of different sections of the brain and bone marrow, heart, aorta, lungs, liver, kidneys, endocrine and immune organs.

[6] = 5 μg/kg intramuscular 1 hour before toxic dose of caffeine i.p.

**Q.** For `C[C@H](N)C(=O)N[C@@H](CCC(=O)O)C(=O)N[C@@H](CC(=O)O)C(=O)N1CCC[C@H]1C(=O)O` [L-Ala-L-Glu-L-Asp-L-Pro tetrapeptide, L-Alanyl-L-Glutamyl-L-Aspartyl-L-Proline] (H-AEDP-OH), which “time of retention on the rotating pivot relative to control” value ([1]; 48 hours after the trauma) is on record?
**A.** twice exceeded that in control

**Q.** What about the “number of trainable animals relative to controls (CRAA)” value ([1]; 96 hours after trauma, intramuscular in 1, 12, 48 and 96 hours) of the same compound?
**A.** twice as much as that in the controls

**Q.** And the “indices of learning relative to control” value ([1]; in 30 days)?
**A.** higher than those in control

**Q.** What about the acute toxic reactions (white unbred male mice; doses several thousand times exceeding the therapeutic one) of the same compound?
**A.** did not induce any acute toxic reactions

**Q.** What about the “alterations in the general state, behaviour, motional activity, hair and skin integument, physiologic discharges” value (white unbred male mice; single intramuscular 1-5 mg/kg) of the same compound?
**A.** No alterations

**Q.** And the death of mice (white unbred male mice; single intramuscular 1-5 mg/kg, within 72 hours and in 14 days)?
**A.** none of the mice in either of the groups died

**Q.** What about the “effect on apomorphine toxic effects (anxiety, locomotor activity)” value (rats [2]; 5 μg/kg intramuscular 1 hour before toxic dose of apomorphine i.p.) of the same compound?
**A.** diminished anxiety and locomotor activity

**Q.** And the “effect on caffeine-induced anxiety” value (rats [2]; [6])?
**A.** lowered caffeine-induced anxiety

**Q.** What about the “effect on locomotor activity after caffeine” value (rats [2]; [6]) of the same compound?
**A.** did not affect locomotor activity

**Q.** What about the “effect on haloperidol toxic effects (anxiety, locomotor activity)” value (rats [2]; 5 μg/kg intramuscular 1 hour before toxic dose of haloperidol i.p.) of the same compound?
**A.** increased anxiety and locomotor activity

**Q.** And the “effect on nicotine toxic effects (anxiety)” value (rats [2]; 5 μg/kg intramuscular 1 hour before toxic dose of nicotine i.p.)?
**A.** decreased the influence of nicotine on the animals' anxiety

**Q.** What about the “Total period of stay in the dark chamber in 24 hours” value [3] of the same compound?
**A.** 38.1 ± 4.4

**Q.** What about the “Trained animals (%)” value ([3]; i.p. 60 min. before the training) of the same compound?
**A.** 25%

**Q.** What about the “improvement of the electric threshold of the regenerating nerve” value ([4]; 11th day after nerve compression) of the same compound?
**A.** 30–50%

**Q.** What about the “acetyl choline muscular contraction rate” value ([4]; FIG. 3) of the same compound?
**A.** tendency to diminish

**Q.** And the “shortening of the latent M-response period” value ([4]; intact neuromuscular system)?
**A.** 89%

**Q.** What about the “shortening of the latent M-response period” value ([4]; regenerating nerve (and the muscle)) of the same compound?
**A.** 59%

**Q.** What about the “side effects, chronic toxicity” value (rats [5]; intramuscular daily for 6 months, 1 μg/kg, 0.1 mg/kg, 1 mg/kg) of the same compound?
**A.** absence of any side effects

**Q.** And the “pathologic alterations (general state, peripheral blood indices, intrinsic organs, cardiovascular and respiratory systems, liver and kidney functions)” value (rats [5]; prolonged intramuscular administration to rats)?
**A.** no pathologic alterations
